Data reported in publication PMC5447808 (Pulmonary pharmacology & therapeutics, 2017).

Legend:
[1] = biological target: T1, KAT8 (lysine acetyltransferase 8) (Homo sapiens, UniProt Q9H7Z6); test: enzyme kinetics of KAT8 HAT activity, fluorescent detection of CoASH; assay type: biochemical
T1 sequence (Q9H7Z6 2-458): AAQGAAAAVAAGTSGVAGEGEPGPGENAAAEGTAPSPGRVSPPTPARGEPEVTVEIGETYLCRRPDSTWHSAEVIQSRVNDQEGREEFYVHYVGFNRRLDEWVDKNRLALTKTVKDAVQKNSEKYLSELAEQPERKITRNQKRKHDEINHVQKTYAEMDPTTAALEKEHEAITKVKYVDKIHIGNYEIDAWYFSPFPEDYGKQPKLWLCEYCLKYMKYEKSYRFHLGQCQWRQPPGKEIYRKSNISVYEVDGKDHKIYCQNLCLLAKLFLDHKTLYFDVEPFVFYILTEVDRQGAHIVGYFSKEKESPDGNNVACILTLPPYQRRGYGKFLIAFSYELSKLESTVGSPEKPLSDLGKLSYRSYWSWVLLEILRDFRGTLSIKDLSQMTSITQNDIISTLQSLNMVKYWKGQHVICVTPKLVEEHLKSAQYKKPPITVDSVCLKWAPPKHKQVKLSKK

[2] = biological target: T1, KAT8 (lysine acetyltransferase 8); test: enzyme kinetics, Km app. for Ac-CoA without inhibitor; assay type: biochemical; conditions: read-out: Ac-CoA / Km app.

| Ki [1] [µM] | Km [2] [µM] | SMILES |
| --- | --- | --- |
| 39 ± 7.7 |  | CCCCCCCc1ccc(CCc2cccc(O)c2C(=O)O)cc1 [MG149] |
|  | 4.1 ± 1.1 | CC(=O)SCCNC(=O)CCNC(=O)[C@H](O)C(C)(C)COP(=O)(O)OP(=O)(O)OC[C@H]1O[C@@H](n2cnc3c(N)ncnc32)[C@H](O)[C@@H]1OP(=O)(O)O [Ac-CoA] |
